In article PMC10537604, “Development and Assessment of 1,5–Diarylpyrazole/Oxime Hybrids Targeting EGFR and JNK–2 as Antiproliferative Agents: A Comprehensive Study through Synthesis, Molecular Docking, and Evaluation” (Molecules, 2023):
Read-outs that look alike come from different tables or passages of the source.

Key:
[1] = tested on: human cervical cancer cell line Hela; experiment: WST-8 antiproliferative assay, Hela; assay type: cell-based; conditions: for inhibition at 100 µM: read-out: Growth Inhibition (GI%) Hela; for IC50: read-out: IC50 Hela
[2] = Nitric oxide release, Griess colorimetric method; assay type: physicochemical; conditions: phosphate buffer pH 7.4, N-acetylcysteine
Procedure: For the indirect determination of NO, the Griess colorimetric approach was utilized, which includes spectrophotometry measurements of the stable decomposition products NO2^− and NO3^−. This method requires that NO3^− is first reduced to NO2^− and then NO2^− is determined by the Griess reaction that includes two steps, the first step is a diazotization reaction in which the NO-derived nitrogen agent, dinitrogen trioxide (N2O3), which is produced by the spontaneous oxidation of NO with sulfanilamide to form the diazonium ion, is used. […] In order to evaluate thiol-induced NO generation from the appropriate compounds, including NO-donating oximes 8a–b, 8d–i, and 10a–c, they were incubated in aqueous phosphate buffer of pH 7.4 in the presence of excess N-acetylcysteine, which serves as a source of thiols that are essential for the release of NO from oximes. The signal intensity of the dye is proportional to the amount of NO released. To quantify the amount of NO released, a standard curve was made by measuring the change in absorbance of various concentrations of standard sodium nitrite solutions treated by the same way. […] At the first hour, the amount of nitric oxide released increased in compounds 8i, 8b, and 8h, while the maximum release of nitric oxide occurring in compounds 8b and 8h was at 2 h. Then, the amount of nitic oxide released declined, which may explain the biological importance of oxime moiety as a source of nitric oxide release in comparison with ketone intermediates 7a–j and 9a–c, as shown in the anticancer activity of oxime derivatives.
The nitrite calibration curve in addition to the absorbance of the tested compounds were measured on Shimadzu UV-160, UV-Visible spectrophotometer (Shimadzu, Tokyo, Japan). The tested compounds were prepared as solutions in DMF and diluted with the buffer system until a concentration of 100 mM. N-Acetyl cysteine solution was prepared in a concentration of 500 mM in methanol. Griess reagent consists of 0.1% w/v NED solution in water and sulfanilamide solution (1% w/v of sulfanilamide in 5% w/v phosphoric acid). Nitrite standard solution (0.1 M sodium nitrite in water) stock solution was prepared, from which a dilute solution of 100 μM nitrite solution was prepared by dilution 1 mL of the stock solution to 1000 mL with phosphate buffer of pH 7.4. From this solution, 4 serials 2-fold dilutions were performed to generate different concentrations of the nitrite solution (100.00, 50.00, 25.00, and 12.50 μM) and these concentrations were used for nitrite calibration curve.
Sulfanilamide and NEDD solutions were kept at 25 °C; […] of sulfanilamide solution was added to each dilution of the prepared standard nitrite solution. The mixture was left at 25 °C for 5–10 min protected from light. To this mixture, […] of the NEDD solution was added and the mixture was again left for 5–10 min at 25 °C protected from light. […] A plot of the average absorbance value for each concentration of the nitrite standard solution as a function of “Y” against nitrite concentration as a function of “X” was constructed to generate a standard nitrite calibration curve at pH 7.4.
The amount of NO released from the tested compounds 8a–b, 8d–I, and 10a–c was measured using the Griess colorimetric method either in phosphate buffer of pH 7.4 in the presence of N-acetyl cysteine, which serves as a source of thiols. The amount of NO released from the tested compounds was measured relative to NO released from standard sodium nitrite solution.
Different solutions of the tested compounds 8a–b, 8d–i, and 10a–c in DMF were diluted using phosphate buffer of pH 7.4 till a final concentration of 100 mM (test solutions). To […] of different test solutions, […] of N-acetyl cysteine solution was added and the obtained solution was kept in an incubator at 37 °C (treated solutions). […]

[3] = WST-8 assay, six concentrations 1-100 µM

melting point | IC50 [1, 3] | SMILES | inhibition at 100 µM ([1]; 100 µM, WST-8 assay) | Amount of NO Released (mol/mol) 1 h [2] | Amount of NO Released (mol/mol) 2 h [2] | Amount of NO Released (mol/mol) 3 h [2] | Amount of NO Released (mol/mol) 4 h [2] | inhibition at 100 µM [1] | IC50 [1]
110 to 112 °C |  | COc1ccc(-c2cc(C(=O)Nc3ccc(/C(C)=N/O)cc3)nn2-c2ccc(S(N)(=O)=O)cc2)cc1 [Compound 10b, (E)–N–(4–(1–(Hydroxyimino)ethyl)phenyl)–5–(4–methoxyphenyl)–1–(4–sulfamoylphenyl)–1H–pyrazole–3–carboxamide] | 2% | 0.095 ± 0.035 mol/mol | 0.114 ± 0.046 mol/mol | 0.079 ± 0.031 mol/mol | 0.031 ± 0.018 mol/mol |  | 
 | 5 µM | COc1ccc(-c2cc(C(=O)Nc3ccc(/C(C)=N/O)cc3)nn2-c2ccc(S(N)(=O)=O)cc2)cc1OC [Compound 10c, (E)–5–(3,4–Dimethoxyphenyl)–N–(4–(1–(hydroxyimino)ethyl)phenyl)–1–(4–sulfamoyl phenyl)–1H–pyrazole–3–carboxamide] | 75% | 0.075 ± 0.036 mol/mol | 0.151 ± 0.049 mol/mol | 0.114 ± 0.030 mol/mol | 0.081 ± 0.020 mol/mol |  | 

The next lines start with the compound.

SMILES | melting point | IC50 [1, 3] | inhibition at 100 µM ([1]; 100 µM, WST-8 assay) | Amount of NO Released (mol/mol) 1 h [2] | Amount of NO Released (mol/mol) 2 h [2] | Amount of NO Released (mol/mol) 3 h [2] | Amount of NO Released (mol/mol) 4 h [2] | inhibition at 100 µM [1] | IC50 [1]
COc1cc(/C(C)=N/O)ccc1OC(=O)c1cc(-c2ccccc2)n(-c2ccccc2)n1 [Compound 8a, (E)–4–(1–(Hydroxyimino)ethyl)2–methoxyphenyl 1,5–diphenyl–1H–pyrazole–3–carboxylate] | 167 to 170 °C |  | 33% | 0.095 ± 0.036 mol/mol | 0.121 ± 0.047 mol/mol | 0.108 ± 0.042 mol/mol | 0.056 ± 0.022 mol/mol |  | 
COc1cc(/C(C)=N/O)ccc1OC(=O)c1cc(-c2ccc(C)cc2)n(-c2ccccc2)n1 [Compound 8b, (E)–4–(1–(Hydroxyimino)ethyl)–2–methoxyphenyl 1–phenyl–5–p–tolyl–1H–pyrazole–3–carboxylate] | 123 to 125 °C | 32 µM | 60% | 0.102 ± 0.039 mol/mol | 0.159 ± 0.019 mol/mol | 0.105 ± 0.025 mol/mol | 0.095 ± 0.030 mol/mol |  | 
COc1cc(/C(C)=N/O)ccc1OC(=O)c1cc(-c2ccc(Cl)cc2)n(-c2ccccc2)n1 [Compound 8d, (E)–4–(1–(Hydroxyimino)ethyl)–2–methoxyphenyl 5–(4–chlorophenyl)–1–phenyl–1H–pyrazole–3–carboxylate] | 106 to 109 °C |  |  | 0.096 ± 0.036 mol/mol | 0.106 ± 0.040 mol/mol | 0.101 ± 0.038 mol/mol | 0.079 ± 0.030 mol/mol | 48% | 57 µM
COc1ccc(-c2cc(C(=O)Oc3ccc(/C(C)=N/O)cc3OC)nn2-c2ccccc2)cc1OC [Compound 8e, (E)–4–(1–(Hydroxyimino)ethyl)–2–methoxyphenyl 5–(3,4–dimethoxy phenyl)–1–phenyl–1H–pyrazole–3–carboxylate] | 115 to 118 °C | 22 µM | 77% | 0.064 ± 0.022 mol/mol | 0.120 ± 0.046 mol/mol | 0.081 ± 0.030 mol/mol | 0.048 ± 0.018 mol/mol |  | 
COc1cc(/C(C)=N/O)ccc1OC(=O)c1cc(-c2ccccc2)n(-c2ccc(S(N)(=O)=O)cc2)n1 [Compound 8f, (E)–4–(1–(Hydroxyimino)ethyl)–2–methoxyphenyl 5–phenyl–1–(4–sulfamoyl phenyl)–1H–pyrazole–3–carboxylate] | 122 to 124 °C | 22 µM | 107% | 0.096 ± 0.036 mol/mol | 0.116 ± 0.045 mol/mol | 0.079 ± 0.030 mol/mol | 0.048 ± 0.018 mol/mol |  | 
COc1cc(/C(C)=N/O)ccc1OC(=O)c1cc(-c2ccc(C)cc2)n(-c2ccc(S(N)(=O)=O)cc2)n1 [Compound 8g, (E)–4–(1–(Hydroxyimino)ethyl)–2–methoxyphenyl 1–(4–sulfamoylphenyl)–5–p–tolyl–1H–pyrazole–3–carboxylate] |  | 8 µM | 78% | 0.083 ± 0.035 mol/mol | 0.154 ± 0.044 mol/mol | 0.141 ± 0.039 mol/mol | 0.089 ± 0.019 mol/mol |  | 
COc1ccc(-c2cc(C(=O)Oc3ccc(/C(C)=N/O)cc3OC)nn2-c2ccc(S(N)(=O)=O)cc2)cc1 [Compound 8h, (E)–4–(1–(Hydroxyimino)ethyl)–2–methoxyphenyl 5–(4–methoxyphenyl)–1–(4–sulfamoyl phenyl)–1H–pyrazole–3–carboxylate] | 125 to 127 °C | 74 µM | 7% | 0.099 ± 0.029 mol/mol | 0.158 ± 0.014 mol/mol | 0.104 ± 0.033 mol/mol | 0.094 ± 0.0022 mol/mol |  | 
COc1cc(/C(C)=N/O)ccc1OC(=O)c1cc(-c2ccc(Cl)cc2)n(-c2ccc(S(N)(=O)=O)cc2)n1 [Compound 8i, (E)–4–(1–(Hydroxyimino)ethyl)–2–methoxyphenyl 5–(4–chlorophenyl)–1–(4–sulfamoyl phenyl)–1H–pyrazole–3–carboxylate] |  | 13 µM | 100% | 0.105 ± 0.029 mol/mol | 0.115 ± 0.018 mol/mol | 0.109 ± 0.046 mol/mol | 0.087 ± 0.035 mol/mol |  | 
C/C(=N\O)c1ccc(NC(=O)c2cc(-c3ccccc3)n(-c3ccc(S(N)(=O)=O)cc3)n2)cc1 [Compound 10a, (E)–N–(4–(1–(Hydroxyimino)ethyl)phenyl)–5–phenyl–1–(4–sulfamoylphenyl)–1H–pyrazole–3–carboxamide] |  |  | 0% | 0.054 ± 0.023 mol/mol | 0.108 ± 0.043 mol/mol | 0.069 ± 0.024 mol/mol | 0.036 ± 0.012 mol/mol |  | 
